Measured values taken from patent publication US11590139B2, “Substituted aminopurine compounds, compositions thereof, and methods of treatment therewith” (Signal Pharmaceuticals, LLC, priority 2014, dated 2023).

test system: Lox-IMVI melanoma cell line; test: Lox-IMVI anti-proliferative assay (growth inhibition, Cell Titer-Glo); type: cell-based, human; conditions: Homo sapiens; IC50 activity level in the cell-based Lox-IMVI anti-proliferative assay; read-out: Activity
Procedure, shortened: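 Growth inhibition is assessed over 72 h in RPMI + 10% FBS at 0.2% DMSO, with ATP-based luminescence used as the viability measure. IC50 is fitted from normalized dose-response data.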

Row | SMILES | IC50 [nM]
1 | NC(=O)[C@H]1CC[C@@H](n2c(Nc3cc(F)c(Cl)cc3F)nc3cnc(N[C@@H]4CCC[C@H]4O)nc32)CC1 [Example 265, (1S,4s)-4-(8-(4-chloro-2,5-difluorophenylamino)-2-((1R,2R)-2-hydroxycyclopentylamino)-9H-purin-9-yl)cyclohexanecarboxamide] | > 1000
2 | C[C@H](CO)Nc1ncc2nc(Nc3c(F)cc(F)cc3Cl)n([C@H]3CC[C@@H](C(N)=O)CC3)c2n1 [Example 134, (1S,4s)-4-(8-(2-chloro-4,6-difluorophenylamino)-2-((R)-1-hydroxypropan-2-ylamino)-9H-purin-9-yl)cyclohexanecarboxamide] | > 1000
3 | CC[C@@H](CO)Nc1ncc2nc(Nc3c(Cl)cc(F)cc3Cl)n([C@H]3CC[C@@H](C(N)=O)CC3)c2n1 [Example 145, (1R,4s)-4-(8-(2,6-dichloro-4-fluorophenylamino)-2-((S)-1-hydroxybutan-2-ylamino)-9H-purin-9-yl)cyclohexanecarboxamide] | > 1000
4 | NC(=O)[C@H]1CC[C@@H](n2c(Nc3c(F)cc(F)cc3F)nc3cnc(N[C@@H]4CC[C@@H](O)C4)nc32)CC1 [Example 207, (1S,4s)-4-(2-((1R,3R)-3-hydroxycyclopentylamino)-8-(2,4,6-trifluorophenylamino)-9H-purin-9-yl)cyclohexanecarboxamide] | > 1000
5 | NC(=O)[C@H]1CC[C@@H](n2c(Nc3c(F)cc(F)cc3Cl)nc3cnc(N[C@H]4C[C@H](O)C4)nc32)CC1 [Example 282, (1s,4s)-4-(8-(2-chloro-4,6-difluorophenylamino)-2-((1R,3r)-3-hydroxycyclobutylamino)-9H-purin-9-yl)cyclohexanecarboxamide] | > 1000
6 | Cc1cc(Cl)c(Nc2nc3cnc(NC4CCOCC4)nc3n2[C@H]2CC[C@@H](C(N)=O)CC2)cc1C [Example 101, (1s,4s)-4-(8-(2-chloro-4,5-dimethylphenylamino)-2-(tetrahydro-2H-pyran-4-ylamino)-9H-purin-9-yl)cyclohexanecarboxamide] | > 1000
7 | NC(=O)[C@H]1CC[C@@H](n2c(Nc3cc(F)c(Cl)cc3Cl)nc3cnc(NC4CCOCC4)nc32)CC1 [Example 105, (1s,4s)-4-(8-(2,4-dichloro-5-fluorophenylamino)-2-(tetrahydro-2H-pyran-4-ylamino)-9H-purin-9-yl)cyclohexanecarboxamide] | > 1000
8 | NC(=O)[C@H]1CC[C@@H](n2c(Nc3c(F)cccc3Cl)nc3cnc(NC4CC(F)(F)C4)nc32)CC1 [Example 225, (1s,4s)-4-(8-(2-chloro-6-fluorophenylamino)-2-(3,3-difluorocyclobutylamino)-9H-purin-9-yl)cyclohexanecarboxamide] | > 1000
9 | NC(=O)[C@H]1CC[C@@H](n2c(Nc3c(Cl)cc(Cl)cc3Cl)nc3cnc(N[C@H]4COC[C@@H]4O)nc32)CC1 [Example 313, (1R,4s)-4-(2-((3S,4R)-4-hydroxytetrahydrofuran-3-ylamino)-8-(2,4,6-trichlorophenylamino)-9H-purin-9-yl)cyclohexanecarboxamide] | 500 to 1000
10 | NC(=O)[C@H]1CC[C@@H](n2c(Nc3c(F)cc(Cl)cc3Cl)nc3cnc(N[C@@H]4CCC[C@H]4O)nc32)CC1 [Example 255, (1S,4s)-4-(8-(2,4-dichloro-6-fluorophenylamino)-2-((1R,2R)-2-hydroxycyclopentylamino)-9H-purin-9-yl)cyclohexanecarboxamide] | > 1000
11 | CC1(C)CC[C@@H](Nc2ncc3nc(Nc4c(F)ccc(Cl)c4F)n([C@H]4CC[C@@H](C(N)=O)CC4)c3n2)C[C@H]1O [Example 390, (1S,4s)-4-(8-(3-chloro-2,6-difluorophenylamino)-2-((1R,3R)-3-hydroxy-4,4-dimethylcyclohexylamino)-9H-purin-9-yl)cyclohexanecarboxamide] | > 1000
12 | NC(=O)[C@H]1CC[C@@H](n2c(Nc3c(Cl)cc(Cl)cc3Cl)nc3cnc(N[C@@H]4CCOC4)nc32)CC1 [Example 76, (1S,4s)-4-(2-((R)-tetrahydrofuran-3-ylamino)-8-(2,4,6-trichlorophenylamino)-9H-purin-9-yl)cyclohexanecarboxamide] | 250 to 500
13 | NC(=O)[C@H]1CC[C@@H](n2c(Nc3c(F)cc(F)cc3F)nc3cnc(N[C@H]4CCC[C@@H]4O)nc32)CC1 [Example 266, (1R,4s)-4-(2-((1S,2S)-2-hydroxycyclopentylamino)-8-(2,4,6-trifluorophenylamino)-9H-purin-9-yl)cyclohexanecarboxamide] | > 1000
14 | NC(=O)[C@H]1CC[C@@H](n2c(Nc3c(F)cc(Cl)cc3F)nc3cnc(NC4COCC4O)nc32)CC1 (stereo partly shown) [Example 184, (1s,4s)-4-(8-(4-chloro-2,6-difluorophenylamino)-2-(4-hydroxytetrahydrofuran-3-ylamino)-9H-purin-9-yl)cyclohexanecarboxamide] | > 1000

same assay, conditions: Homo sapiens; Lox-IMVI anti-proliferative assay, IC50 activity level; read-out: Activity

Row | SMILES | IC50 [nM]
15 | CC(C)Nc1ncc2nc(Nc3c(Cl)cc(C#N)cc3Cl)n([C@H]3CC[C@@H](C(N)=O)CC3)c2n1 [Example 431, (1s,4s)-4-(8-(2,6-dichloro-4-cyanophenylamino)-2-(isopropylamino)-9H-purin-9-yl)cyclohexanecarboxamide] | 500 to 1000
16 | NC(=O)[C@H]1CC[C@@H](n2c(Nc3c(F)cc(Cl)cc3F)nc3cnc(N[C@@H]4CCCC[C@H]4O)nc32)CC1 [Example 467, (1S,4s)-4-(8-(4-chloro-2,6-difluorophenylamino)-2-((1R,2R)-2-hydroxycyclohexylamino)-9H-purin-9-yl)cyclohexanecarboxamide] | > 1000
17 | NC(=O)[C@H]1CC[C@@H](n2c(Nc3c(F)cc(F)cc3Cl)nc3cnc(N[C@H]4CCC(F)(F)C4)nc32)CC1 [Example 589, (1R,4s)-4-(8-(2-chloro-4,6-difluorophenylamino)-2-((S)-3,3-difluorocyclopentylamino)-9H-purin-9-yl)cyclohexanecarboxamide] | 250 to 500
18 | C[C@H]1COCC[C@H]1Nc1ncc2nc(Nc3c(Cl)cc(Cl)cc3Cl)n([C@H]3CC[C@@H](C(N)=O)CC3)c2n1 [Example 501, (1S,4s)-4-(2-((3R,4R)-3-methyltetrahydro-2H-pyran-4-ylamino)-8-(2,4,6-trichlorophenylamino)-9H-purin-9-yl)cyclohexanecarboxamide] | 250 to 500
19 | C[C@]1(C(N)=O)CC[C@@H](n2c(Nc3c(Cl)cc(OC(F)(F)F)cc3Cl)nc3cnc(NC4CCC4)nc32)CC1 [Example 598, (1s,4s)-4-(2-(cyclobutylamino)-8-(2,6-dichloro-4-(trifluoromethoxy)phenylamino)-9H-purin-9-yl)-1-methylcyclohexanecarboxamide] | > 1000
20 | NC(=O)[C@H]1CC[C@@H](n2c(Nc3c(F)cc(F)cc3F)nc3cnc(NC4CCCOCC4)nc32)CC1 (stereo partly shown) [Example 536, (1s,4s)-4-(2-(oxepan-4-ylamino)-8-(2,4,6-trifluorophenylamino)-9H-purin-9-yl)cyclohexanecarboxamide] | 500 to 1000
21 | C[C@@H](CO)Nc1ncc2nc(Nc3c(F)cc(Cl)cc3Cl)n([C@H]3CC[C@@](C)(C(N)=O)CC3)c2n1 [Example 547, (1R,4s)-4-(8-(2,4-dichloro-6-fluorophenylamino)-2-((S)-1-hydroxypropan-2-ylamino)-9H-purin-9-yl)-1-methylcyclohexanecarboxamide] | < 250

same assay, conditions: Homo sapiens; Lox-IMVI melanoma cell line, anti-proliferative assay; read-out: Activity (IC50 activity level)

Row | SMILES | IC50 [nM]
22 | N#Cc1cc(Cl)c(Nc2nc3cnc(N[C@@H]4CCC(O)C4)nc3n2[C@H]2CC[C@@H](C(N)=O)CC2)c(Cl)c1 (stereo partly drawn) [Example 683, (1S,4s)-4-(8-(2,6-dichloro-4-cyanophenylamino)-2-((1R,3R)-3-hydroxycyclopentylamino)-9H-purin-9-yl)cyclohexanecarboxamide] | < 250
23 | NC(=O)[C@H]1CC[C@@H](n2c(Nc3c(F)cc(F)cc3Cl)nc3cnc(NC4CCC(c5ncno5)CC4)nc32)CC1 (stereo partly shown) [Example 677, (1s,4s)-4-(2-(4-(1,2,4-oxadiazol-5-yl)cyclohexylamino)-8-(2-chloro-4,6-difluorophenylamino)-9H-purin-9-yl)cyclohexanecarboxamide] | > 1000
24 | NC(=O)[C@H]1CC[C@@H](n2c(Nc3c(F)cc(F)cc3F)nc3cnc(N[C@@H]4CCCN(C(=O)Nc5ccccc5)C4)nc32)CC1 [Example 781, (R)-3-(9-((1s,4S)-4-carbamoylcyclohexyl)-8-(2,4,6-trifluorophenylamino)-9H-purin-2-ylamino)-N-phenylpiperidine-1-carboxamide] | > 1000
25 | C[C@]1(C(N)=O)CC[C@@H](n2c(Nc3c(Cl)cc(C#N)cc3Cl)nc3cnc(N[C@@H]4CC[C@@H](O)C4)nc32)CC1 [Example 641, (1S,4s)-4-(8-(2,6-dichloro-4-cyanophenylamino)-2-((1R,3R)-3-hydroxycyclopentylamino)-9H-purin-9-yl)-1-methylcyclohexanecarboxamide] | < 250
26 | CC(C)OC(=O)N1CCC[C@@H](Nc2ncc3nc(Nc4c(F)cc(F)cc4F)n([C@H]4CC[C@@H](C(N)=O)CC4)c3n2)C1 [Example 772, (R)-isopropyl 3-(9-((1s,4S)-4-carbamoylcyclohexyl)-8-(2,4,6-trifluorophenylamino)-9H-purin-2-ylamino)piperidine-1-carboxylate] | > 1000
27 | CC(C)OC(=O)N1CCC[C@@H](Nc2ncc3nc(Nc4c(Cl)cc(Cl)cc4Cl)n([C@H]4CC[C@@H](C(N)=O)CC4)c3n2)C1 [Example 768, (R)-isopropyl 3-(9-((1s,4S)-4-carbamoylcyclohexyl)-8-(2,4,6-trichlorophenylamino)-9H-purin-2-ylamino)piperidine-1-carboxylate] | 500 to 1000
28 | C[C@]1(C(N)=O)CC[C@@H](n2c(Nc3c(F)cc(Cl)cc3F)nc3cnc(N[C@H]4CCOC[C@H]4F)nc32)CC1 [Example 721, (1R,4s)-4-(8-(4-chloro-2,6-difluorophenylamino)-2-((3S,4S)-3-fluorotetrahydro-2H-pyran-4-ylamino)-9H-purin-9-yl)-1-methylcyclohexanecarboxamide] | < 250
